From ChEMBL document CHEMBL3774345, “Synthesis of new diarylamides with pyrimidinyl pyridine scaffold and evaluation of their anti-proliferative effect on cancer cell lines” (Bioorg Med Chem Lett, 2016)
pIC50: −log10 of the molar value.

Experiments:
[1] = Cytotoxicity against human SNB19 cells after 24 hrs by SRB assay; type: functional; conditions: SNB-19, 24 h
786-0 = assay: Cytotoxicity against human 786-0 cells assessed as cell growth at 10^-7 M after 24 hrs by SRB assay; type: functional; conditions: 786-0, 24 h, read-out: Activity
[2] = Cytotoxicity against human LOXIMVI cells after 24 hrs by SRB assay; type: functional, cell-based; conditions: LOX IMVI
[3] = Cytotoxicity against human UACC62 cells assessed as cell growth at 10^-4 M after 24 hrs by SRB assay; type: functional; conditions: UACC-62, 24 h, read-out: Activity
[4] = Cytotoxicity against human HOP92 cells assessed as cell growth at 10^-4 M after 24 hrs by SRB assay; type: functional; conditions: HOP-92, 24 h, read-out: Activity
[5] = Cytotoxicity against human COLO205 cells assessed as cell growth at 10^-6 M after 24 hrs by SRB assay; type: functional; conditions: COLO 205, 24 h, read-out: Activity
[6] = Cytotoxicity against human UACC62 cells assessed as cell growth at 10^-6 M after 24 hrs by SRB assay; type: functional; conditions: UACC-62, 24 h, read-out: Activity
[7] = Cytotoxicity against human Hs 578T cells after 24 hrs by SRB assay; type: functional
[8] = Cytotoxicity against human SF268 cells assessed as cell growth at 10^-8 M after 24 hrs by SRB assay; type: functional; conditions: SF-268, 24 h, read-out: Activity
[9] = Cytotoxicity against human SW620 cells assessed as cell growth at 10^-6 M after 24 hrs by SRB assay; type: functional; conditions: SW-620, 24 h, read-out: Activity
NCI-H226 = assay: Cytotoxicity against human NCI-H226 cells assessed as cell growth at 10^-4 M after 24 hrs by SRB assay; type: functional; conditions: NCI-H226, 24 h, read-out: Activity
[10] = Cytotoxicity against human PC3 cells assessed as cell growth at 10^-8 M after 24 hrs by SRB assay; type: functional; conditions: PC-3, 24 h, read-out: Activity
T47D = assay: Cytotoxicity against human T47D cells assessed as cell growth at 10^-6 M after 24 hrs by SRB assay; type: functional; conditions: read-out: Activity
[11] = Cytotoxicity against human SKOV3 cells assessed as cell growth at 10^-6 M after 24 hrs by SRB assay; type: functional; conditions: SK-OV-3, 24 h, read-out: Activity
CCRF-CEM = assay: Cytotoxicity against human CCRF-CEM cells assessed as cell growth at 10^-5 M after 24 hrs by SRB assay; type: functional; conditions: read-out: Activity
[12] = Cytotoxicity against human Hs 578T cells assessed as cell growth at 10^-8 M after 24 hrs by SRB assay; type: functional; conditions: read-out: Activity
[13] = Cytotoxicity against human Caki1 cells assessed as cell growth at 10^-5 M after 24 hrs by SRB assay; type: functional; conditions: CAKI-1, 24 h, read-out: Activity
MCF7 = assay: Cytotoxicity against human MCF7 cells after 24 hrs by SRB assay; type: functional; conditions: MCF7, 24 h
MDA-MB-231 = assay: Cytotoxicity against human MDA-MB-231 cells after 24 hrs by SRB assay; type: functional, cell-based; conditions: MDA-MB-231, 24 h
[14] = Cytotoxicity against human RXF393 cells assessed as cell growth at 10^-7 M after 24 hrs by SRB assay; type: functional; conditions: RXF 393, 24 h, read-out: Activity
[15] = Cytotoxicity against human COLO205 cells assessed as cell growth at 10^-7 M after 24 hrs by SRB assay; type: functional; conditions: COLO 205, 24 h, read-out: Activity
NCI-H522 [16] = assay: Cytotoxicity against human NCI-H522 cells assessed as cell growth at 10^-5 M after 24 hrs by SRB assay; type: functional; conditions: NCI-H522, 24 h, read-out: Activity
EKVX = assay: Cytotoxicity against human EKVX cells assessed as cell growth at 10^-6 M after 24 hrs by SRB assay; type: functional; conditions: read-out: Activity
[17] = Cytotoxicity against human HL-60(TB) cells assessed as cell growth at 10^-4 M after 24 hrs by SRB assay; type: functional; conditions: HL-60, 24 h, read-out: Activity
[18] = Cytotoxicity against human HCT116 cells assessed as cell growth at 10^-8 M after 24 hrs by SRB assay; type: functional; conditions: HCT-116, 24 h, read-out: Activity
NCI-H460 = assay: Cytotoxicity against human NCI-H460 cells assessed as cell growth at 10^-4 M after 24 hrs by SRB assay; type: functional; conditions: NCI-H460, 24 h, read-out: Activity
NCI-H522 [19] = assay: Cytotoxicity against human NCI-H522 cells assessed as cell growth at 10^-6 M after 24 hrs by SRB assay; type: functional; conditions: NCI-H522, 24 h, read-out: Activity
[20] = Cytotoxicity against human MOLT4 cells after 24 hrs by SRB assay; type: functional; conditions: MOLT-4, 24 h
[21] = Cytotoxicity against human SF295 cells assessed as cell growth at 10^-8 M after 24 hrs by SRB assay; type: functional; conditions: SF-295, 24 h, read-out: Activity
SR = assay: Cytotoxicity against human SR cells assessed as cell growth at 10^-8 M after 24 hrs by SRB assay; type: functional; conditions: read-out: Activity
KM12 = assay: Cytotoxicity against human KM12 cells assessed as cell growth at 10^-4 M after 24 hrs by SRB assay; type: functional; conditions: KM12, 24 h, read-out: Activity
[22] = Cytotoxicity against human UACC257 cells after 24 hrs by SRB assay; type: functional; conditions: UACC-257, 24 h
[23] = Cytotoxicity against human UACC62 cells assessed as cell growth at 10^-7 M after 24 hrs by SRB assay; type: functional; conditions: UACC-62, 24 h, read-out: Activity
SN12C = assay: Cytotoxicity against human SN12C cells assessed as cell growth at 10^-4 M after 24 hrs by SRB assay; type: functional; conditions: read-out: Activity
[24] = read-out: LC50 (the source's name)
[25] = read-out: pLC50 (the source's name) (converted)

In the case of `O=C(Nc1cc(-c2cccnc2)nc(NCCCN2CCOCC2)n1)c1cc(Br)cc(C(F)(F)F)c1`, the GI50 ([1]; read-out: GI50) was 2.5 µM, the CC50 [1, 24] was 21.5 µM and the TGI ([1]; read-out: TGI) was 5.75 µM. It also gave a GI50 ([1]; read-out: pGI50 (converted)) of 2.51 µM, a CC50 [1, 25] of 21.4 µM and a TGI ([1]; read-out: pTGI (converted)) of 5.75 µM. The growth at 0.1 µM (786-0) was 91%, the pIC50 [2] was 5.79 and the GI50 ([2]; read-out: GI50) was 1.62 µM. The CC50 [2, 24] was 5.79 µM, the TGI ([2]; read-out: TGI) was 3.06 µM and the GI50 ([2]; read-out: pGI50 (converted)) was 1.62 µM. It also gave a CC50 [2, 25] of 5.75 µM, a TGI ([2]; read-out: pTGI (converted)) of 3.09 µM and a growth at 100 µM [3] of -90%. For the same molecule, the growth at 100 µM [4] was -94%, the growth at 1 µM [5] was 92% and the growth at 1 µM [6] was 90%. For the same molecule, the GI50 ([7]; read-out: GI50) was 2.71 µM, the CC50 [7, 24] was over 100 µM and the TGI ([7]; read-out: TGI) was 8.51 µM. For the same molecule, the GI50 ([7]; read-out: pGI50 (converted)) was 2.69 µM, the CC50 [7, 25] was 100 µM and the TGI ([7]; read-out: pTGI (converted)) was 8.51 µM. It also gave a growth at 0.01 µM [8] of 97%, a growth at 1 µM [9] of 95% and a growth at 100 µM (NCI-H226) of -89%. It also gave a growth at 0.01 µM [10] of 93%, a growth at 1 µM (T47D) of 88% and a growth at 1 µM [11] of 97%. It also gave a growth at 10 µM (CCRF-CEM) of 6%, a growth at 0.01 µM [12] of 93% and a growth at 10 µM [13] of 3%. For the same molecule, the GI50 (MCF7; read-out: GI50) was 2.17 µM, the CC50 (MCF7; [24]) was 44.8 µM and the TGI (MCF7; read-out: TGI) was 9.22 µM. It also gave a GI50 (MCF7; read-out: pGI50 (converted)) of 2.24 µM, a CC50 (MCF7; [25]) of 44.7 µM and a TGI (MCF7; read-out: pTGI (converted)) of 9.12 µM. It also gave a pIC50 (MDA-MB-231) of 5.75, a GI50 (MDA-MB-231; read-out: GI50) of 1.79 µM and a CC50 (MDA-MB-231; [24]) of 8.65 µM. It also gave a TGI (MDA-MB-231; read-out: TGI) of 3.93 µM, a GI50 (MDA-MB-231; read-out: pGI50 (converted)) of 1.78 µM and a CC50 (MDA-MB-231; [25]) of 8.71 µM. It also gave a TGI (MDA-MB-231; read-out: pTGI (converted)) of 3.89 µM, a growth at 0.1 µM [14] of 97% and a growth at 0.1 µM [15] of 93%. The growth at 10 µM (NCI-H522 [16]) was -32%, the growth at 1 µM (EKVX) was 76% and the growth at 100 µM [17] was -51%. It also gave a growth at 0.01 µM [18] of 102%, a growth at 100 µM (NCI-H460) of -75% and a growth at 1 µM (NCI-H522 [19]) of 83%. The GI50 ([20]; read-out: GI50) was 3.63 µM, the CC50 [20, 24] was 59.6 µM and the TGI ([20]; read-out: TGI) was 13.1 µM. For the same molecule, the GI50 ([20]; read-out: pGI50 (converted)) was 3.63 µM, the CC50 [20, 25] was 60.3 µM and the TGI ([20]; read-out: pTGI (converted)) was 13.2 µM. It also gave a growth at 0.01 µM [21] of 97%, a growth at 0.01 µM (SR) of 106% and a growth at 100 µM (KM12) of -90%. The GI50 ([22]; read-out: GI50) was 2.1 µM, the CC50 [22, 24] was 6.8 µM and the TGI ([22]; read-out: TGI) was 3.78 µM. The GI50 ([22]; read-out: pGI50 (converted)) was 2.09 µM, the CC50 [22, 25] was 6.76 µM and the TGI ([22]; read-out: pTGI (converted)) was 3.8 µM. For the same molecule, the growth at 0.1 µM [23] was 90% and the growth at 100 µM (SN12C) was -85%.
